Experimental data taken from article PMC8402609, “Guiding the Immune Response to a Conserved Epitope in MSP2, an Intrinsically Disordered Malaria Vaccine Candidate” (Vaccines, 2021).
Read-outs that look alike come from different tables or passages of the source. Where a SMILES comes first, the peptide text is derived from it. Bridges are numbered along the chain shown (N, C = ends).

Legend:
4D11 IgG = test: SPR competition binding assay, mAb 4D11; set-up: species or system mouse; conditions: read-out: Kd against 4D11 IgG
Protocol: (§1) Affinities for peptide epitopes and dimer peptides to 4D11 and 9H4 IgG were measured by surface plasmon resonance (SPR) (Biacore T200, GE Healthcare, Parramatta, Australia) using a competition assay method developed previously. First, 3D7 MSP2 was immobilised on a CM5 chip. To determine binding, eight three-fold dilutions of peptide, from 10 µM stock were added with 50 nM 4D11/9H4 IgG to compete with the immobilised antigen. A standard curve was established by flowing eight two-fold dilutions of 4D11 or 9H4 IgG from a 100 nM stock solution.
Following the MD simulations, each peptide was synthesised by standard Fmoc synthesis. Orthogonal protection of cysteines was used to ensure that the desired disulfide bond was formed, leaving a single free cysteine for conjugation to an appropriate carrier for immunisation. […] Consequently, disulfide bond formation and cyclisation coupling were performed in solution. To determine if the additions incorporated into the dimer sequence hindered binding to 4D11, SPR was used to measure their binding affinity to the mAb (Table 2). […] For immunisations, the commonly used carrier protein, keyhole limpet hemocyanin (KLH) was chosen. As conjugation to KLH required a free thiol, an additional cysteine residue was included in all of the peptides (Figure 2).

3D7 merozoites = test: Merozoite ELISA with pooled mouse sera, 3D7 merozoites; format: in vivo, P. falciparum; conditions: pooled sera of immunised mice, two-fold dilutions from 1:500; merozoites 1 × 10^7/well; OD 450 nm; rank order in words
Protocol: The reactivity of mouse polyclonal antibodies with merozoites was determined by ELISA using merozoites from both the 3D7 and FC27 (D10 clone) strains of P. falciparum. The parasites were cultured in human erythrocytes at a haematocrit of 3% in RPMI media supplemented with […]. Viable merozoites were isolated as described previously. Highly synchronised late-stage schizonts were magnet-purified via a MACS magnet separation column (Miltenyi Biotec, Macquarie Park, Australia) and treated with E64 protease inhibitor (ThermoFisher Scientific, Scoresby, Australia) until mature merozoites were formed. Merozoites were released forcing them through a 1.2 µm filter.
Purified whole merozoites were resuspended in PBS supplemented with a cocktail of protease inhibitors (Roche, Castle Hill, Australia). Isolated merozoites were used to coat Nunc Maxisorp™ plates at 1 × 10^7/well and incubated overnight at 4 °C. The plates were then blocked with 1% casein in PBS at 37 °C for 2 h (or overnight at 4 °C). Pooled sera samples were added to wells at two-fold serial dilution in duplicate with a starting dilution of 1:500 and incubated at RT for 1 h. The plates were further incubated with HRP-conjugated goat anti-mouse IgG antibody diluted at 1:1000 in 0.1% casein in PBS at RT for 1 h. The plates were washed six times with PBS between each incubation step. Finally, 3,3′,5,5′-tetramethylbenzidine (TMB) substrate (Thermo Fisher Scientific, Scoresby, Australia) was added to the wells for the development of colour for 15 min and the reaction was stopped with 1 M sulfuric acid. The OD was measured at 450 nm.
The ability to induce an immune response that can recognise parasite MSP2 is essential in the design of an MSP2-based peptide vaccine. We isolated merozoites from both 3D7 and FC27 (D10 clone) strains of P. falciparum, coated them on ELISA plates and probed them with sera from the immunised mice (Figure 6). mAb 4D11 and the MSP2 mix pre-bleed were also included as positive and negative controls, respectively.

[1] = test system: biotinylated 13-residue peptides (A-I) spanning the C-terminal region of MSP2; test: Fine specificity of antisera by peptide array ELISA (peptides A-I); format: in vivo, mouse; conditions: individual sera of mice immunised with peptide-KLH conjugate or MSP2 mix, diluted 1:1000; indirect ELISA; peptides C-D span 9H4 epitope, E-G span 4D11 epitope
Protocol: Peptide was conjugated to maleimide-activated KLH (Sigma-Aldrich) following the manufacturer’s protocol. Briefly, 1 mg of each peptide was mixed with 1 mg KLH in the provided buffer for a 200-fold molar excess of peptide to carrier protein. The reaction mixture was degassed under nitrogen and mixed at room temperature (RT) for 2 h. Any unreacted peptide was removed by dialysis against PBS using a 10 kDa cut-off membrane. The extent of conjugation was determined using Ellman’s reagent. Peptide-KLH conjugate stock solution was stored at 4 °C until further use. Prior to immunisation, peptide-KLH conjugates were diluted to 1 mg/mL in PBS and formulated with Montanide ISA720 at an antigen:adjuvant ratio of 3:7 and a final concentration of 0.3 mg/mL. The 3D7 + FC27 MSP2 mix was formulated using 0.15 mg/mL of each allelic form. Female C57BL/6 mice (n = 6 per group) were inoculated subcutaneously with 100 µL containing 30 µg of antigen at weeks 0, 4 and 8, then euthanised at week 10. Sera were collected and stored at −80 °C.
To determine peptide-KLH binding to 4D11 and 9H4, Maxisorp 96-well microtitre plates (Nunc, Rochester, NY, USA) were coated overnight at 4 °C with 2 µg/mL peptide-KLH in PBS. The plates were blocked with 1% BSA in PBS for 1 h before adding 100 µL of 4D11 and 9H4 IgG in eleven half log10 serial dilutions starting from stock at 1 µg/mL. After 1 h incubation at 4 °C and washing, antigen-bound antibodies were detected with goat anti-mouse IgG (1:2000 dilution) and freshly prepared 2,2-azinobis(3-ethylbenzthiazolinesulfonic acid (ABTS) substrate (1 mm) in citric acid buffer, pH 4.2, containing […]. The absorbance was read at 405 nm using a microplate reader. For determination of peptide-specific antibody titres, peptide-BSA conjugate was coated on the plate at 2 µg/mL. Individual mouse sera were added at a starting dilution of 1000-fold with six half log10 serial dilutions. Endpoint titres were taken as the x-axis intercept of the dilution curve at an absorbance value of three standard deviations (s.d.) greater than OD405 for naïve mouse serum. The fine specificities of the antisera were determined by ELISA using an array of nine biotinylated 13-residue peptides (A-I), which overlap by 2 or 3 residues and spanned the C-terminal region of MSP2 [11, 13]. Maxisorp 96-well microtitre plates (Nunc) were coated overnight at 4 °C with 1 µg/mL streptavidin in PBS. The plates were blocked with 1% BSA in PBS for 2 h before adding 1:500 biotinylated peptides. Individual sera samples were diluted 1:1000 in blocking solution before addition to the peptide array. Antibody was detected with the same protocol as mentioned above.
To characterise the response against these dimeric peptides further, the specificity of the induced antibodies was determined by indirect ELISA using an array of nine biotinylated peptides that spanned the epitopes recognised by the 4D11 and 9H4 mAbs (peptides A-I) (Table 3). Peptides C and D spanned the 9H4 epitope, whilst peptides E to G spanned the 4D11 epitope. […] However, the response against MSP2 was largely dominated by a single mouse in the group.

9H4 IgG = test: SPR competition binding assay, mAb 9H4; set-up: species or system mouse; conditions: SPR competition assay (Biacore T200); 3D7 MSP2 immobilised on CM5 chip; eight three-fold dilutions of peptide from 10 µM with 50 nM 9H4 IgG; alanine scan of 16-residue MSP2_207–222; read-out: Kd against 9H4 IgG
Protocol: as §1
In our previous work, the minimal epitope and key residues involved in 4D11 binding were defined as the 8-residue peptide 3D7-MSP2_215–222, with Lys216, Glu217 and Asn218 crucial for binding. To characterise the epitope of 9H4 and compare it with that of 4D11, the same alanine-scan peptides were used to probe 9H4 binding (Figure 1A,B). Affinities for 9H4 binding were measured by SPR, using a competition binding assay described previously.

[2] = SPR competition binding assay, peptides for KLH conjugation (Table 2), 3D7 MSP2 on CM5 chip, 50 nM 4D11 IgG
[3] = SPR competition assay (Biacore T200), 3D7 MSP2 immobilised on CM5 chip, eight three-fold dilutions of peptide from 10 µM with 50 nM 4D11 IgG, alanine scan of 16-residue MSP2_207–222

SMILES | Kd (4D11 IgG; [2]) [nM] | reactivity of pooled sera with 3D7 merozoites (3D7 merozoites) | specificity of the induced antibodies (peptide array A-I) [1] | Kd (4D11 IgG; [3]) [nM] | Kd (9H4 IgG) [nM]
CC(=O)N[C@@H](CC(N)=O)C(=O)N[C@@H](CCCCN)C(=O)N[C@@H](CCC(=O)O)C(=O)N[C@@H](CC(N)=O)C(=O)N[C@H]1CSSC[C@@H](C(=O)NCC(=O)N[C@@H](C)C(=O)N[C@@H](C)C(=O)N[C@@H](CS)C(N)=O)NC(=O)[C@H](CC(N)=O)NC(=O)[C@H](CCC(=O)O)NC(=O)[C@H](CCCCN)NC(=O)[C@H](CC(N)=O)NC(=O)CNC(=O)[C@H](C)NC(=O)[C@H](C)NC(=O)CNC1=O [Peptide L1] (Ac-NKENCGAAGNKENCGAAC-NH2; disulfide 5-14) | 470 | followed by K209A, A1, C1 and L1 | almost exclusively directed to the 4D11 epitope | – | –
C[C@@H]1NC(=O)CNC(=O)[C@@H]2CSSC[C@H](NC(=O)[C@H](CC(N)=O)NC(=O)[C@H](CCC(=O)O)NC(=O)[C@H](CCCCN)NC(=O)[C@H](CC(N)=O)NC(=O)CNC(=O)[C@H](C)NC1=O)C(=O)NCC(=O)N[C@@H](C)C(=O)N[C@@H](C)C(=O)N[C@@H](CS)C(=O)N[C@@H](CC(N)=O)C(=O)N[C@@H](CCCCN)C(=O)N[C@@H](CCC(=O)O)C(=O)N[C@@H](CC(N)=O)C(=O)N2 [Peptide C1] (cyclo(NKENCGAAGNKENCGAAC); disulfide 5-14) | 440 | followed by K209A, A1, C1 and L1 | almost exclusively directed to the 4D11 epitope | – | –
CC(=O)N[C@@H](CO)C(=O)N[C@@H](CCC(N)=O)C(=O)N[C@@H](CCCCN)C(=O)N[C@@H](CCC(=O)O)C(=O)N[C@H]1CSSC[C@@H](C(=O)NCC(=O)N[C@@H](C)C(=O)N[C@@H](C)C(N)=O)NC(=O)[C@H](CC(N)=O)NC(=O)[C@H](CCC(=O)O)NC(=O)[C@H](CCCCN)NC(=O)[C@H](CC(N)=O)NC(=O)[C@H](C)NC(=O)[C@H](CC(=O)O)NC(=O)[C@H]([C@@H](C)O)NC1=O [Peptide G214A] (Ac-SQKECTDANKENCGAA-NH2; disulfide 5-13) | – | – | – | 400 | 70
CC(=O)N[C@@H](CO)C(=O)N[C@@H](C)C(=O)N[C@@H](CCCCN)C(=O)N[C@@H](CCC(=O)O)C(=O)N[C@H]1CSSC[C@@H](C(=O)NCC(=O)N[C@@H](C)C(=O)N[C@@H](C)C(N)=O)NC(=O)[C@H](CC(N)=O)NC(=O)[C@H](CCC(=O)O)NC(=O)[C@H](CCCCN)NC(=O)[C@H](CC(N)=O)NC(=O)CNC(=O)[C@H](CC(=O)O)NC(=O)[C@H]([C@@H](C)O)NC1=O [Peptide Q208A] (Ac-SAKECTDGNKENCGAA-NH2; disulfide 5-13) | – | – | – | 400 | 2900
CC(=O)N[C@@H](CO)C(=O)N[C@@H](CCC(N)=O)C(=O)N[C@@H](C)C(=O)N[C@@H](CCC(=O)O)C(=O)N[C@H]1CSSC[C@@H](C(=O)NCC(=O)N[C@@H](C)C(=O)N[C@@H](C)C(N)=O)NC(=O)[C@H](CC(N)=O)NC(=O)[C@H](CCC(=O)O)NC(=O)[C@H](CCCCN)NC(=O)[C@H](CC(N)=O)NC(=O)CNC(=O)[C@H](CC(=O)O)NC(=O)[C@H]([C@@H](C)O)NC1=O [Peptide K209A] (Ac-SQAECTDGNKENCGAA-NH2; disulfide 5-13) | 200 | followed by K209A, A1, C1 and L1 | shifted antibody recognition towards the 4D11-specific epitope represented by peptides E and F | 300 | 7300
CC(=O)N[C@@H](CO)C(=O)N[C@@H](CCC(N)=O)C(=O)N[C@@H](CCCCN)C(=O)N[C@@H](CCC(=O)O)C(=O)N[C@H]1CSSC[C@@H](C(=O)NCC(=O)N[C@@H](C)C(=O)N[C@@H](C)C(=O)N[C@@H](CS)C(N)=O)NC(=O)[C@H](CC(N)=O)NC(=O)[C@H](CCC(=O)O)NC(=O)[C@H](CCCCN)NC(=O)[C@H](CC(N)=O)NC(=O)CNC(=O)[C@H](CC(=O)O)NC(=O)[C@H]([C@@H](C)O)NC1=O [Peptide A1] (Ac-SQKECTDGNKENCGAAC-NH2; disulfide 5-13) | 200 | followed by K209A, A1, C1 and L1 | primarily against peptides C and D | – | –
CC(=O)N[C@@H](CO)C(=O)N[C@@H](CCC(N)=O)C(=O)N[C@@H](CCCCN)C(=O)N[C@@H](CCC(=O)O)C(=O)N[C@H]1CSSC[C@@H](C(=O)NCC(=O)N[C@@H](C)C(=O)N[C@@H](C)C(N)=O)NC(=O)[C@H](C)NC(=O)[C@H](CCC(=O)O)NC(=O)[C@H](CCCCN)NC(=O)[C@H](CC(N)=O)NC(=O)CNC(=O)[C@H](CC(=O)O)NC(=O)[C@H]([C@@H](C)O)NC1=O [Peptide N218A] (Ac-SQKECTDGNKEACGAA-NH2; disulfide 5-13) | – | – | – | 6000 | 2700
